Values quoted from earlier work as cited in patent US20150216993A1 (priority 2012, published 2015).

Test system: organophosphate poisoning
Conditions: in vivo

## O/N=C/c1cc[n+](COC[n+]2ccc(/C=N/O)cc2)cc1 [obidoxime, obidoxime chloride]
  window of time in which the therapeutic is effective: about 10 minutes
